We go through 2 substances from patent publication US20240199587A1, “HETEROCYCLIC COMPOUNDS” (Hoffmann-La Roche Inc., priority 2021, published 2024).

For the assay, the target named is T1, MAGL (Homo sapiens, UniProt Q99685).
T1 sequence (Q99685 1-303): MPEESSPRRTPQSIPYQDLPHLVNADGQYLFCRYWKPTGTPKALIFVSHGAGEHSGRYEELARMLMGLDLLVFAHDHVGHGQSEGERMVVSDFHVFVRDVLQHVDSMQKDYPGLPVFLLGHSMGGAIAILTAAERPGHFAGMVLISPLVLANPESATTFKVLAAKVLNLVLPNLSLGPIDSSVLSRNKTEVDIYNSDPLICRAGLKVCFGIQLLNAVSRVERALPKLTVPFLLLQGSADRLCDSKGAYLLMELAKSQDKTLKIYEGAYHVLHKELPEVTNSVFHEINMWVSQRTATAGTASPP
Briefly: 2-AG assay (MAGL inhibitory activity, hydrolysis of 2-arachidonoylglycerol to arachidonic acid followed by mass spectrometry). In kind it is biochemical. Conditions: 8 μM 2-arachidonoylglycerol, 15 min pre-incubation, 30 min incubation at RT, RapidFire MS readout. An outline of the steps:
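Arachidonic acid released from 8 μM 2-arachidonoylglycerol was quantified by online SPE triple-quadrupole MS (negative ESI, 303.1→259.1), normalised to d8-arachidonic acid internal standard. Reaction ran 30 min at RT after 15 min RT compound pre-incubation with […] MAGL in TRIS/EDTA/Tween-20 buffer, 2.5% DMSO.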

“N-[2-[6-[3-(1- hydroxycyclopropyl)- 1,2,4-triazol-1-yl]-2- azaspiro[3.3]heptane-2- carbonyl]-2- azaspiro[3.3]heptan-6- yl]-3- (trifluoromethyl) benzenesulfonamide [Example 401]” came in with an IC50 of 9.45 nM.
As for “[6-[3-(1- hydroxycyclopropyl)- 1,2,4-triazol-1-yl]-2- azaspiro[3.3]heptan-2- yl]-[6-[4- (trifluoromethyl)-2- pyridyl]methyl]-2- azaspiro[3.3]heptan-2- yl]methanone [Example 400]”, the IC50 turned out to be 4.65 nM.
